Tested on: PBMCs
Assay: GR antagonist block of MP immunosuppressive effects in anti-CD3 stimulated PBMCs (IFNg ELISA)
Type: cell-based, human
Conditions: plate-bound anti-CD3 48 hours, MP plus mifepristone
Procedure: Peripheral blood lymphocytes were stimulated in 96-well culture plate (2×10^5 cells/well) with plate bound anti-CD3 mAb (0.5 μg/ml), and cultured for 48 h at 37° C. The cultured supernatants were removed and stored at […]. Cytokine concentration in the supernatants were measured by ELISA using human cytokine kits.
Another approach to investigate the functionality of GR is by the examination of the responsiveness of immune cell subsets to the glucocorticoid antagonist, mifepristone. […] This indicates an impairment in GR signaling which contributes to steroid resistance, which could be tested in stressed and non-stressed individuals as described herein. Such an impairment could also optionally act as a biomarker for the stress diagnostic kit according to at least some embodiments thereof.
PBMCs were purified from young healthy-aged and AD subjects, stimulated by plate-bound anti-CD3 mAb (0.5 micro-g/ml) for 48 hours in the presence of MP or with both MP and GR antagonist, mifepristone. The cultured supernatants were examined for IFNg production by ELISA; the results are shown as percentage of the levels measured without MP.

SMILES: CC#C[C@]1(O)CC[C@H]2[C@@H]3CCC4=CC(=O)CCC4=C3[C@@H](c3ccc(N(C)C)cc3)C[C@@]21C [mifepristone]
- blocking of MP immunosuppressive effects (IFNg production) (PBMCs of aged and Alzheimer's disease (AD) subjects): impaired
- blocking of MP immunosuppressive effects (IFNg production) (PBMCs of young subjects): partially blocks

Reference: US9664690B1, “Molecular diagnostic kits for evaluating stress” (The National Institute for Biotechnology in the Negev Ltd., priority 2013, dated 2017)
